{"source": "paper PMC5127787", "about": "(Frontiers in Microbiology, 2016)", "molecular_target": "RecA (Escherichia coli, UniProt P0A7G6)", "sequence (P0A7G6 2-353)": "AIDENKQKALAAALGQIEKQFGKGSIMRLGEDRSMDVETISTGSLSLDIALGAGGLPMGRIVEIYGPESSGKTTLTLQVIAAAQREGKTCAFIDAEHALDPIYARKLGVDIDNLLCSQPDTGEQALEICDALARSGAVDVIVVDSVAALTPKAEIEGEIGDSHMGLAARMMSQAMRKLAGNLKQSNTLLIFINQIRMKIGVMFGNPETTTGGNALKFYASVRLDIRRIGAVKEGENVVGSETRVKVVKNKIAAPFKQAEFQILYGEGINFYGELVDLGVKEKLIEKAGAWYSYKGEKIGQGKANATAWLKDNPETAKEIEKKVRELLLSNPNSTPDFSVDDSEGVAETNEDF", "assay": "biochemical", "data": [{"compound": "CN1CCN(c2ccc(N3C(=O)C=CC3=O)cc2)CC1", "note": "[AHU3]", "values": [{"measurement": "IC50", "value": 7.72, "unit": "µM"}]}]}
